According to patent publication US8785447B2, “Use of dopamine D3 receptor ligands for the production of drugs for treating renal function disorders” (AbbVie Deutschland GmbH & Co. KG, priority 2000, dated 2014):

What was measured:
Type in all cases: in vivo, male Sprague-Dawley rats
[1] = test system: animal experimental model of diabetic nephropathy (rats with streptozotocin-induced diabetes mellitus); test: Clearance investigation (renal 3H-inulin clearance, GFR) in anesthetized streptozotocin-diabetic rats; details: for glomerular filtration rate (GFR): anesthetized diabetic rats after 14 to 16 days, 3H-inulin clearance, S-sulpiride 25 mg/kg/d, D3-A 5 mg/kg/d, untreated diabetic 1.10 vs. time control 0.83
Protocol: (§1) The action of the dopamine D3 antagonists was investigated in an animal experimental model of diabetic nephropathy. Rats in which diabetes mellitus had been induced by administration of streptozotocin developed marked glomerular hyperfiltration within 14 days.
(§2) 60 mg/kg of streptozotocin, dissolved in citrate buffer (21 mg of citric acid per 1 ml of double-distilled water), were injected intraperitoneally into male Sprague-Dawley rats having a body weight of 180 to 200 g. Diabetes mellitus was regarded as being induced successfully when an evening glucose concentration of at least 180 mg/dl was found in the venous blood after 24 hours. The blood glucose values of the diabetic animals were between 350 and 450 mg/dl. Insulin substitution was thus not necessary. The body weight of the experimental animals increased about 5 g per day. The same volume of citrate buffer was injected intraperitoneally into nondiabetic time control animals (CON). They had blood glucose values of between 90 and 1120 mg/dl.
(§3) Immediately after successful determination of diabetes mellitus, the animals were accommodated in normal cages with standard feed (Altromin 1320) and mains water ad libitum. By means of different medicinal treatment (administration of the substances via the drinking water), the following four experimental groups were formed: • CON (1) nondiabetic animals without additional treatment (time control) • DM-VHC (2) diabetic animals without additional treatment (diabetic control) • DM-SUL (3) diabetic animals with S-sulpiride treatment (25 mg/kg/d) • DM-D3 (4) diabetic animals with D3-A treatment (D3-A1: D3 receptor antagonist according to Example (7) (5 mg/kg/d); D3-A2: D3 receptor antagonist according to Example (11))
(§4) The volume of liquid absorbed was recorded daily. Every third day, the body weight and the blood glucose level of the animals were determined. After 12 days, the experimental animals were kept in metabolic cages for 24 hours for urine collection. The protein concentration in the urine was determined according to the standard method described by Lowry. For this, after incubation of the samples with 1 M NaOH a color reaction was induced with Folin reagent (phenol-Ciocalteu's), whose intensity was quantified photometrically. The albumin concentration in the urine was determined by a radioimmunoassay (RIA) specific for albumin. A kit from Biermann (KHAD 2: albumin RIA), was employed which used a polyclonal antibody against human serum albumin (goat) and ^125I-labeled human serum albumin as a tracer. After 14 to 16 days, the animals were anesthetized with thiopental (80 mg/kg) and polyethylene catheters were placed in the jugular vein and the carotid artery and also in the urinary bladder. The glomerular filtration rate (GFR) was determined by means of the renal ^3H-inulin clearance. The mean arterial blood pressure (MAP) and the heart rate (HR) were furthermore recorded during the experiment. At the end of the clearance experiments, the kidneys were removed and subjected to a histopathological examination.

[2] = test system: animal experimental model of diabetic nephropathy (rats with streptozotocin-induced diabetes mellitus); test: Histopathological examination of the kidneys of streptozotocin-diabetic rats; details: for structural intrarenal changes occurring in diabetic nephropathy: comparison of the treatment groups; for glomerular hypertrophy (enlargement of the glomeruli): mean of 20 microscopically measured areas, S-sulpiride 25 mg/kg/d, D3-A1 5 mg/kg/d
Protocol: as §2, §3, §4

[3] = test system: animal experimental model of diabetic nephropathy (rats with streptozotocin-induced diabetes mellitus); test: Kidney wet weight of streptozotocin-diabetic rats
Protocol: as §2, with “[…]. […]” for “1120 mg/dl.”
The volume of liquid absorbed was recorded daily. Every third day, the body weight and the blood glucose level of the animals were determined. […] The protein concentration in the urine was determined according to the standard method described by Lowry. For this, after incubation of the samples with 1 M NaOH a color reaction was induced with Folin reagent (phenol-Ciocalteu's), whose intensity was quantified photometrically. The albumin concentration in the urine was determined by a radioimmunoassay (RIA) specific for albumin. […] The glomerular filtration rate (GFR) was determined by means of the renal ^3H-inulin clearance. […]

[4] = test system: animal experimental model of diabetic nephropathy (rats with streptozotocin-induced diabetes mellitus); test: 24-hour urine collection (protein by Lowry, albumin by RIA) in streptozotocin-diabetic rats; details: for albuminuria / proteinuria: 24-hour urine of conscious diabetic rats after 12 days, via drinking water, S-sulpiride 25 mg/kg/d, D3-A1 5 mg/kg/d; for albuminuria: untreated diabetic 118 vs. time control 23; for proteinuria: untreated diabetic 133 vs. time control 46
Protocol: as §1, §2, §3, §4

[5] = diabetic rats, subchronic treatment, 30 mg/kg body weight per day
[6] = diabetic rats, subchronic treatment

Compound | diabetes-induced renal hyperperfusion [1, 5] | glomerular hyperfiltration [1, 5] | structural intrarenal changes occurring in diabetic nephropathy [2] | kidney wet weight ([3]; diabetic rats treated with D3-A2, nondiabetic 0.9±0.1, DM-VHC 1.1+0.04) | incipient renal hypertrophy [3, 5] | albuminuria [4] | proteinuria [4] | pathological protein and albumin excretion ([4]; diabetic rats, comparison of the treatment groups) | glomerular filtration rate (GFR) [1] | renal hemodynamic changes in the course of diabetic nephropathy [1, 6] | glomerular hypertrophy (enlargement of the glomeruli) [2]
CC(C)(C)c1nc(N2CCN(CCCSc3nccc(O)n3)CC2)cc(C(F)(F)F)n1.O=C(O)/C=C/C(=O)O [Example 11, 2-(3-(4-(2-t-Butyl-6-trifluoromethyl)pyrimidin-4-yl)piperazin-1-yl)propylmercaptopyrimidin-4-ol fumarate] | distinctly reduced | distinctly reduced | abolished | 0.96+0.03 g per 100 g body weight | distinct reduction | – | – | – | – | – | –
CC(=CCN1CCN(c2cc(C(F)(F)F)nc(C(C)(C)C)n2)CC1)CSc1nnc(N)n1C [Example 7] | – | – | abolished | – | – | 18 µg/day | 113 mg/day | markedly reduced | 0.83 mL/min | significant decrease | not
CCN1CCC[C@H]1CNC(=O)c1cc(S(N)(=O)=O)ccc1OC [sulpiride, S-sulpiride, reference compound] | – | – | not | – | – | 101 µg/day | 178 mg/day | – | 0.71 mL/min | significant decrease | likewise to be observed
